The test system of experiment [1] is Plasmodium berghei. Description: Antimalarial activity against sporozoite stage of Plasmodium berghei infected in human HepG2 cells assessed as inhibition of sporozoite infectivity at 2 uM after 40 hrs. The experiment is classed as functional.
In experiment [2] the test system is Plasmodium berghei. Description: Antimalarial activity against sporozoite stage of Plasmodium berghei infected in human HepG2 cells assessed as inhibition of sporozoite infectivity at 10 uM after 40 hrs. It is filed as functional, organism-based.

The source made the active and inactive calls. No cut-off for these calls is given here.

Consider `O=C(CCCC[C@@H]1SC[C@@H]2NC(=O)N[C@@H]21)NCCOCCOCCOCCOCCC(=O)NCCN1CCC(c2cc(-c3ccncc3)c(-c3ccc(F)cc3)[nH]2)CC1`, for which the inhibition entry in experiment [1] and in experiment [2] was “inactive” throughout. Regarding `O=C(CCCCCNC(=O)CCCC[C@@H]1SC[C@@H]2NC(=O)N[C@@H]21)NCCCCCC(=O)NCCN1CCC(c2cc(-c3ccncc3)c(-c3ccc(F)cc3)[nH]2)CC1`, the inhibition result in experiment [1] and in experiment [2] was “inactive” each time. On to `NCCN1CCC(c2cc(-c3ccncc3)c(-c3ccc(F)cc3)[nH]2)CC1`, for which the inhibition – broadly, the change of the read-out against control, counted positive when it falls – in experiment [2] is “Active”.

`CN1CCC(c2cc(-c3ccncc3)c(-c3ccc(F)cc3)[nH]2)CC1`: the inhibition at 2 µM in experiment [1] (HepG2, 40 h) is greater than 90%. On to `Fc1ccc(-c2[nH]c(C3CCNCC3)cc2-c2ccncc2)cc1`, for which the inhibition entry in experiment [2] was “Active”.

(Values after ChEMBL document CHEMBL2331387, “Chemical probes of a trisubstituted pyrrole to identify its protein target(s) in Plasmodium sporozoites” (2013).)
